The test system of the assay is T1, FabI2 ENR (metagenomic YX7K type enoyl-acyl carrier protein reductase).
T1 construct: fabI2 gene in pET-30b(+) (BamHI/SalI), vector pAF1-5; His-tag fusion protein from E. coli BL21(DE3), tag cleavage not mentioned
Nature of the assay: spectrophotometric NADH oxidation at […] nm, Michaelis-Menten fit. The class given is biochemical, uncultured bacterium. Conditions: 100 nM enzyme, 100 mM sodium phosphate pH 7.0, 25 °C.

For `NC(=O)C1=CN([C@@H]2O[C@H](COP(=O)(O)OP(=O)(O)OC[C@H]3O[C@@H](n4cnc5c(N)ncnc54)[C@H](O)[C@@H]3O)[C@@H](O)[C@H]2O)C=CC1` [NADH], the Km (in general, the concentration of substrate that gives half-maximal velocity) (60 µM crotonyl-CoA) is 18.2 µM.
On to `C/C=C/C(=O)SCCNC(=O)CCNC(=O)[C@H](O)C(C)(C)COP(=O)(O)OP(=O)(O)OC[C@H]1O[C@@H](n2cnc3c(N)ncnc32)[C@H](O)[C@@H]1OP(=O)(O)O` [crotonyl-CoA], for which the Km (200 µM NADH) is 13.8 µM.

For the origin of these results see paper PMC6817880, “Biochemical and Structural Insights Concerning Triclosan Resistance in a Novel YX7K Type Enoyl-Acyl Carrier Protein Reductase from Soil Metagenome” (Scientific Reports, 2019).
